Experimental data from ChEMBL document CHEMBL5584307, “Discovery of a Potent and Orally Bioavailable Xanthine Oxidase/Urate Transporter 1 Dual Inhibitor as a Potential Treatment for Hyperuricemia and Gout” (J Med Chem, 2024).

How the values were obtained:
[1] = Inhibition of SLC (unknown origin); set-up: species or system Homo sapiens
[2] = AUC (last) in Beagle dog at 1 mg/kg, iv measured upto 24 hrs by LC-MS/MS analysis; format: ADME, organism-based, Canis lupus familiaris; conditions: in vivo
[3] = Toxicity in cynomolgous monkey assessed as drug tolerance at 30 to 200 mg/kg/day for 28 days consecutively; format: organism-based, Macaca fascicularis; conditions: cynomolgus monkey, in vivo, 672 h; dose 30-200 mg/kg/day, time 28 day
[4] = AUC (0 to t) in female rat at 60 mg/kg/day for 28 days; format: ADME, organism-based; conditions: in vivo, time 28 day
[5] = AUC (last) in Beagle dog at 5 mg/kg, po measured upto 24 hrs by LC-MS/MS analysis; format: ADME, organism-based, Canis lupus familiaris; conditions: in vivo
[6] = Ratio of drug concentration in Sprague-Dawley rat kidney to plasma at 3 mg/kg, po measured for 24 hrs by LC-MS/MS analysis; format: ADME, organism-based; conditions: kidney and plasma
[7] = Oral bioavailability in Cynomolgous monkey at 5 mg/kg measured upto 24 hrs by LC-MS/MS analysis; format: ADME, organism-based, Macaca fascicularis; conditions: cynomolgus monkey, in vivo
[8] = target: Voltage-gated inwardly rectifying potassium channel KCNH2 (Homo sapiens, UniProt Q12809); assay: Inhibition of hERG transfected in HEK293 cells by patch clamp assay; format: toxicity, cell-based
Chain of Voltage-gated inwardly rectifying potassium channel KCNH2 (Q12809 whole entry): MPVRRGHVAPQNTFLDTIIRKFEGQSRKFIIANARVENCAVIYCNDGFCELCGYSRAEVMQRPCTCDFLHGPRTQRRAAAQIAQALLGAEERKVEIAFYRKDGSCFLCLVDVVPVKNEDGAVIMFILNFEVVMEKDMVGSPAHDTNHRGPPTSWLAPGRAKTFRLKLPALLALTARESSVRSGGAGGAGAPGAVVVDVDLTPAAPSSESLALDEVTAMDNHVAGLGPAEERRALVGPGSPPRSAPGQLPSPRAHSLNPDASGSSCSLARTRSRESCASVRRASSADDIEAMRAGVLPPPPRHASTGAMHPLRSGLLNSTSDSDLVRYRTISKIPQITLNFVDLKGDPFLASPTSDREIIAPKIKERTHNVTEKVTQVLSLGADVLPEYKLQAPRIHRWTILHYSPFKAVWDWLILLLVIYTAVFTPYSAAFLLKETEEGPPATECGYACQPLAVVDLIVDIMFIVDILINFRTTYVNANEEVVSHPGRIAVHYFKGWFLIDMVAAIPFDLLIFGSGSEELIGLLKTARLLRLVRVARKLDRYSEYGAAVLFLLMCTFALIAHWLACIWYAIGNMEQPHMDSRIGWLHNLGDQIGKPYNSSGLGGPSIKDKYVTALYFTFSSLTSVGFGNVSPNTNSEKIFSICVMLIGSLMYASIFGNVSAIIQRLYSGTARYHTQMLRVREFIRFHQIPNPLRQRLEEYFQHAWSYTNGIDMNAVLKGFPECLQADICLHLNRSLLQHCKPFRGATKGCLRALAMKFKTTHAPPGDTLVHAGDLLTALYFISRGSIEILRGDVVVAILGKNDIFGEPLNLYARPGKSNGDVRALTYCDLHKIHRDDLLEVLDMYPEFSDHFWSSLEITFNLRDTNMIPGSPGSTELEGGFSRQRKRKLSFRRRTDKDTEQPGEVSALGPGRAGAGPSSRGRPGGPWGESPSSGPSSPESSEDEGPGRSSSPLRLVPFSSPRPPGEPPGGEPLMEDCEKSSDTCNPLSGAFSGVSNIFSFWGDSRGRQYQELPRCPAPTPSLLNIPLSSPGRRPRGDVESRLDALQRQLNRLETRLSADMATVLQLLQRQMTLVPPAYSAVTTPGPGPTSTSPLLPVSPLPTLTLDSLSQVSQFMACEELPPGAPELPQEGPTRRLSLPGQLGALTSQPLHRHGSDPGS

[9] = Toxicity in rat assessed as increase in CHOL level at 120 mg/kg/day for 28 days; format: organism-based; conditions: in vivo, 672 h, time 28 day
Sapajus apella [10] = assay: Urate lowering effect in Tufted capuchin monkey assessed as fraction excretion of uric acid at 100 mg/kg/day, po qd for 3 days consecutively relative to control; format: functional; conditions: time 3 day
Cytochrome P450 1A2 = target: T1, Cytochrome P450 1A2 (Homo sapiens, UniProt P05177); assay: Inhibition of CYP1A2 in human liver microsomes in presence of NADPH by LC-MS/MS analysis; format: ADME, Microsome
T1 sequence (P05177 whole entry): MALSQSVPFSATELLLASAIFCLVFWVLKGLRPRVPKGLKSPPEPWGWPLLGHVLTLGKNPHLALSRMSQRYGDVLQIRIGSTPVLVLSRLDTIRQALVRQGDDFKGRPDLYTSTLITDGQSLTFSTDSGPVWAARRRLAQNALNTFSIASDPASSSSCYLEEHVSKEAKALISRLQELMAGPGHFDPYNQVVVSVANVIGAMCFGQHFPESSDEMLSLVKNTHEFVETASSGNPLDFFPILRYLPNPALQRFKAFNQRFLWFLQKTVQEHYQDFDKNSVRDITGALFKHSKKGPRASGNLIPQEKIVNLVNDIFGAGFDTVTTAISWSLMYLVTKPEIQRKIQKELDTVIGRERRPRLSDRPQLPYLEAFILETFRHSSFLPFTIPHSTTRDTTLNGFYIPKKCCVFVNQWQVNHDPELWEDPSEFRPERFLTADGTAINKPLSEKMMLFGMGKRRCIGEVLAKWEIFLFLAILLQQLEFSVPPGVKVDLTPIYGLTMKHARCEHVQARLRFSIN

Cytochrome P450 2B6 = target: T2, Cytochrome P450 2B6 (Homo sapiens, UniProt P20813); assay: Induction of CYP2B6 in human hepatocytes at 50 uM incubated for 48 hrs with media containing compound renewal every 24 hrs followed by substrate addition measured after 30 mins by LC-MS/MS analysis; format: ADME, cell-based, Hepatocyte; conditions: 48.5 h
T2 sequence (P20813 whole entry): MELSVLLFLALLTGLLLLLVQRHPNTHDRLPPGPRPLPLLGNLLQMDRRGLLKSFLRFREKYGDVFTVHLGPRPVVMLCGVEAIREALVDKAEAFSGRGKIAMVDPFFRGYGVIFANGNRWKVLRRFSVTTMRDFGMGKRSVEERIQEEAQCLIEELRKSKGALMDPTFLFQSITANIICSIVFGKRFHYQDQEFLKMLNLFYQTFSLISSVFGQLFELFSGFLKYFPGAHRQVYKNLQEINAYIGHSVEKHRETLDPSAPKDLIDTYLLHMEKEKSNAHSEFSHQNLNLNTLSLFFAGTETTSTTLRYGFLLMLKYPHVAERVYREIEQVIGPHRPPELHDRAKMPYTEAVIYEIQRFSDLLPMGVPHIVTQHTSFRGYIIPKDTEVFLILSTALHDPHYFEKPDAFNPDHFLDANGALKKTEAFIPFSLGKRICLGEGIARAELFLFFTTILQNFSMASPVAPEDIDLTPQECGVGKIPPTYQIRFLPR

[11] = AUC (last) in Tufted capuchin monkey at 10 mg/kg, po measured for 24 hrs by LC-MS/MS analysis; format: ADME, organism-based; conditions: sapajus apella, in vivo
[12] = Toxicity in rat; conditions: in vivo
[13] = Cmax in Tufted capuchin monkey at 30 mg/kg, po measured for 24 hrs by LC-MS/MS analysis; format: ADME, organism-based; conditions: sapajus apella, in vivo
[14] = Volume of distribution at steady state in Cynomolgous monkey at 5 mg/kg, po or 1 mg/kg, iv measured upto 24 hrs by LC-MS/MS analysis; format: ADME, organism-based, Macaca fascicularis; conditions: cynomolgus monkey, in vivo
[15] = Stability in rat liver microsomes assessed as half life at 1 uM measured upto 60 mins in presence of NADPH by LC-MS/MS analysis; format: ADME, Microsome
[16] = Toxicity in rat administered daily for 28 days; conditions: in vivo, time 28 day
[17] = Toxicity in cynomolgous monkey assessed as increase in salivation at 90 to 200 mg/kg/day for 28 days consecutively; format: organism-based, Macaca fascicularis; conditions: cynomolgus monkey, in vivo, 672 h; dose 90-200 mg/kg/day, time 28 day
Sapajus apella [18] = assay: Urate lowering effect in Tufted capuchin monkey assessed as serum xanthine level at 30 mg/kg/day, po qd for 3 days consecutively; format: functional; conditions: time 3 day
[19] = Clearance in Cynomolgous monkey at 1 mg/kg, iv measured upto 24 hrs by LC-MS/MS analysis; format: ADME, organism-based, Macaca fascicularis; conditions: cynomolgus monkey, in vivo
[20] = Toxicity in rat assessed as mucosal necrosis in pylorus at 120 mg/kg/day for 28 days by H and E staining based analysis; format: organism-based; conditions: in vivo, 672 h, time 28 day
[21] = Clearance in Beagle dog at 1 mg/kg, iv measured upto 24 hrs by LC-MS/MS analysis; format: ADME, organism-based, Canis lupus familiaris; conditions: in vivo
[22] = Volume of distribution at steady state in Beagle dog at 5 mg/kg, po or 1 mg/kg, iv measured upto 24 hrs by LC-MS/MS analysis; format: ADME, organism-based, Canis lupus familiaris; conditions: in vivo
[23] = AUC (last) in Cynomolgous monkey at 5 mg/kg, po measured upto 24 hrs by LC-MS/MS analysis; format: ADME, organism-based, Macaca fascicularis; conditions: cynomolgus monkey, in vivo
[24] = Tmax in Tufted capuchin monkey at 30 mg/kg, po measured for 24 hrs by LC-MS/MS analysis; format: ADME, organism-based; conditions: sapajus apella, in vivo
Cytochrome P450 2D6 = Cytochrome P450 2D6 (Homo sapiens, UniProt P10635); assay: Inhibition of CYP2D6 in human liver microsomes in presence of NADPH by LC-MS/MS analysis; format: ADME, Microsome
Chain of Cytochrome P450 2D6 (P10635 whole entry): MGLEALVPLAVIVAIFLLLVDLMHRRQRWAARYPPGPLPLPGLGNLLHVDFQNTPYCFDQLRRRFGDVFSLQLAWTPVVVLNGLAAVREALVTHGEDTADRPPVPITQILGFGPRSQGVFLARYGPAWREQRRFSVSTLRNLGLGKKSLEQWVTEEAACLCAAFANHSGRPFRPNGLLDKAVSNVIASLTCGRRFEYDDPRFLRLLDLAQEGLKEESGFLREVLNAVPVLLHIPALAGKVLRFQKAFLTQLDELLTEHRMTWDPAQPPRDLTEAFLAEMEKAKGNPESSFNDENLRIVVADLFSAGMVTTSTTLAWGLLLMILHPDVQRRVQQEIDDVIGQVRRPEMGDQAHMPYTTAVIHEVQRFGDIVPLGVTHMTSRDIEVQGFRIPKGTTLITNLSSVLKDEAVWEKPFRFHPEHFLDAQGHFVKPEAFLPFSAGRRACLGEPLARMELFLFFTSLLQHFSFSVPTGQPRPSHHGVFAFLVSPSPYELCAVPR

[25] = Cmax in Tufted capuchin monkey at 10 mg/kg, po measured for 24 hrs by LC-MS/MS analysis; format: ADME, organism-based; conditions: sapajus apella, in vivo
[26] = Stability in human liver microsomes assessed as half life at 1 uM measured upto 60 mins in presence of NADPH by LC-MS/MS analysis; format: ADME, Microsome
[27] = Toxicity in cynomolgous monkey assessed as increase in vomiting at 90 to 200 mg/kg/day for 28 days consecutively; format: organism-based, Macaca fascicularis; conditions: cynomolgus monkey, in vivo, 672 h; dose 90-200 mg/kg/day, time 28 day
[28] = AUC (last) in Cynomolgous monkey at 1 mg/kg, iv measured upto 24 hrs by LC-MS/MS analysis; format: ADME, organism-based, Macaca fascicularis; conditions: cynomolgus monkey, in vivo

With `N#Cc1cc(-c2ccc(C(=O)O)c(O)c2)c2oc(F)cc2c1` the IC50 [1] was greater than 0.628 µM, the AUC(0-t) at 24 h [2] was 3.13 µg·h/mL and the Activity [3] was “Non-Toxic”. It also gave an AUC(0-t) at 672 h [4] of 2390 µg·h/mL, an AUC(0-t) at 24 h [5] of 11.5 µg·h/mL and a Kp at 24 h [6] of 0.56. The bioavailability [7] was 42.4%, the IC50 [8] was greater than 52 µM and the Activity [9] was “Toxic”. For the same compound, the Activity (Sapajus apella [10]) was 23.55%, the IC50 (Cytochrome P450 1A2) was greater than 50 µM and the Activity (Cytochrome P450 2B6) was less than 20%. For the same compound, the AUC(0-t) at 24 h [11] was 4.34 µg·h/mL, the MTD [12] was 450 mg/kg and the Cmax [13] was 16700 ng/mL. The Vdss [14] was 0.297 L/kg, the half-life at 1 µM [15] was 3.38 h and the NOAEL at 672 h [16] was 60 mg/kg/day. The Activity [17] was “Toxic”, the Activity (Sapajus apella [18]) was 6.19 µg·h/mL and the clearance [19] was 0.993 mL/min/kg. For the same compound, the Activity [20] was “Toxic”, the clearance [21] was 5.07 mL/min/kg and the Vdss [22] was 1.71 L/kg. It also gave an AUC(0-t) at 24 h [23] of 34.2 µg·h/mL, a Tmax [24] of 0.8 h and an IC50 (Cytochrome P450 2D6) greater than 50 µM. For the same compound, the Cmax [25] was 2470 ng/mL, the half-life at 1 µM [26] was 3.75 h and the Activity [27] was “Toxic”. For the same compound, the AUC(0-t) at 24 h [28] was 16.1 µg·h/mL.
